Patent publication US20240308976A1, “COMPOUNDS THAT MEDIATE PROTEIN DEGRADATION AND USES THEREOF” (Monte Rosa Therapeutics, Inc., priority 2021, published 2024)

Columns and labels:
CRBN-DDB1 = CRBN-DDB1 (Homo sapiens, UniProt Q96SW2); assay: Compound binding to CRBN by HTRF assay; details: CRBN-DDB1 2.5 nM, Cy5-Thalidomide 100 nM, 30 min at ambient temperature; read-out: HTRF Class (Cereblon binding, HTRF IC50)
Method in brief: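 Cy5-thalidomide (100 nM) displacement from His-tagged CRBN-DDB1 (2.5 nM) read by terbium-cryptate HTRF (665/620 nm), in 20 mM HEPES, 20 mM NaCl, 0.2 mM TCEP, 0.2 mM EDTA, 0.005% Tween20. Compounds tested as 10-point 1:3 series, 30 min at ambient temperature. Signal normalised to DMSO and lenalidomide controls; IC50 fitted, Ki by Cheng-Prusoff.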

GSPT1 = molecular target: T1, GSPT1 (Homo sapiens, UniProt P15170+Q96SW2); assay: Immunofluorescence assay for activity to degrade GSPT1 in CAL-51 cells; assay type: cell-based; details: 6 h treatment, read-out: IF Class (GSPT1 degradation, DC50)
T1 construct: CAL-51 cells were purchased from DSMZ (cat. Number ACC302); host or cells: CAL-51
Method in brief: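 CAL-51 cells treated 6 h with compound (30 μM to 0.1 nM), fixed, immunostained for GSPT1 with DAPI and phalloidin counterstains, imaged by high-content microscopy. Mean per-cell GSPT1 intensity normalized to controls; DC50 by non-linear regression.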

T1 sequence (P15170 whole entry): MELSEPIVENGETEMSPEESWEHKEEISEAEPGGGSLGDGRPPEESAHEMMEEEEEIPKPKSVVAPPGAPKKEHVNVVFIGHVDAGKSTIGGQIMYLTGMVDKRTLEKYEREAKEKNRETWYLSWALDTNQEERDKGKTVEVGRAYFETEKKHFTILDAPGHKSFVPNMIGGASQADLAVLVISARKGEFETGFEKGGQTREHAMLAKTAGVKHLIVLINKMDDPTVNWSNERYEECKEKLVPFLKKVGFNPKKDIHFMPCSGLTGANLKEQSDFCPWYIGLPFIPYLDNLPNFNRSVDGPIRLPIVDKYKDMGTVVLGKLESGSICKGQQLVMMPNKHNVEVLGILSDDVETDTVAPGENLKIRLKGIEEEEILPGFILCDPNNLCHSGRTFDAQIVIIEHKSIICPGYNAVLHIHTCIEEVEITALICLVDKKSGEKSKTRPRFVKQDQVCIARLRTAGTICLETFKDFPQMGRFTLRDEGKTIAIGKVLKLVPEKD
T1 sequence (Q96SW2 whole entry): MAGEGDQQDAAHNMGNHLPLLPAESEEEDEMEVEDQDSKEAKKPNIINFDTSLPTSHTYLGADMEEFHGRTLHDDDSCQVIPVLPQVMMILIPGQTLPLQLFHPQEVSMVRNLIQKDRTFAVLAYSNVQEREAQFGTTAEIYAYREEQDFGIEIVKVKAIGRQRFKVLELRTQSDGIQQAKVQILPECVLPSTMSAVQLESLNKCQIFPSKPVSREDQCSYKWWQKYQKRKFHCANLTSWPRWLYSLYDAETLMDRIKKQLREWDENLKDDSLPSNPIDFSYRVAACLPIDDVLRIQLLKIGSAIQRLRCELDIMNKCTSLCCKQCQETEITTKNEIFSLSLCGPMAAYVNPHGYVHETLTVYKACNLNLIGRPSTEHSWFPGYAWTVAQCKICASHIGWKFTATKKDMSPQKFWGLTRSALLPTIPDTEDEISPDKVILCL
T1 sequence (Q16531 2-1140 partner limits assumed): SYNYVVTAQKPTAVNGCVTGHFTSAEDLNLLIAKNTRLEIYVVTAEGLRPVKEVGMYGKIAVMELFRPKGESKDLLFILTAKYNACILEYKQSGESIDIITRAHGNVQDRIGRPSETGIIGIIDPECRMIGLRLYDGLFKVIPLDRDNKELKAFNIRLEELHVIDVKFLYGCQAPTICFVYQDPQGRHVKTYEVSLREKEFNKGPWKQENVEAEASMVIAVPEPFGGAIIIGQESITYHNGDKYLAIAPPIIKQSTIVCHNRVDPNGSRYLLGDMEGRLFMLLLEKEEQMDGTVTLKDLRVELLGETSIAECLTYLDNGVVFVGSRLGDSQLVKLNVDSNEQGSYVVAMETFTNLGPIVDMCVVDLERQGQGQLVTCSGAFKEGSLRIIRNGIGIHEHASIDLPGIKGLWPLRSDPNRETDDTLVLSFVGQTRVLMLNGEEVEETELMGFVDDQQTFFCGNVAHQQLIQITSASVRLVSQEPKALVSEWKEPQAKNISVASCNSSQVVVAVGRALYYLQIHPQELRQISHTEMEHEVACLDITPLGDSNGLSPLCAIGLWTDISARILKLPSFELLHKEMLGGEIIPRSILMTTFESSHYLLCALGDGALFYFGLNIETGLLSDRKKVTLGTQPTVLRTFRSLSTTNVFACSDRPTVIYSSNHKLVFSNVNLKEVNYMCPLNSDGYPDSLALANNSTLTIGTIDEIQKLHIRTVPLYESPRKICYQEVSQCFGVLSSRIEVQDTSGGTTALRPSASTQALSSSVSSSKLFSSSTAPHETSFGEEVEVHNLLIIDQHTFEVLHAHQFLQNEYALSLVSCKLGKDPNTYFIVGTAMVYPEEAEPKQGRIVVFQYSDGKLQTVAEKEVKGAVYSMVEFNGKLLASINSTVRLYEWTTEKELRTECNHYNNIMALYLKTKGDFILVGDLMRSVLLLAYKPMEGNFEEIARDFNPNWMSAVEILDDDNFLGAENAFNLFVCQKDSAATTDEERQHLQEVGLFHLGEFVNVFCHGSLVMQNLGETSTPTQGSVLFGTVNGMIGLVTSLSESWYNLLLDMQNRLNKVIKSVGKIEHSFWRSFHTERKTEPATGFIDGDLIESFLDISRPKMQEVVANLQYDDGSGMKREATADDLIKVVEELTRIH
CRBN-DDB1, sequence (Q96SW2 whole entry): as the sequence (Q96SW2 whole entry) above
CRBN-DDB1, sequence (Q16531 whole entry partner): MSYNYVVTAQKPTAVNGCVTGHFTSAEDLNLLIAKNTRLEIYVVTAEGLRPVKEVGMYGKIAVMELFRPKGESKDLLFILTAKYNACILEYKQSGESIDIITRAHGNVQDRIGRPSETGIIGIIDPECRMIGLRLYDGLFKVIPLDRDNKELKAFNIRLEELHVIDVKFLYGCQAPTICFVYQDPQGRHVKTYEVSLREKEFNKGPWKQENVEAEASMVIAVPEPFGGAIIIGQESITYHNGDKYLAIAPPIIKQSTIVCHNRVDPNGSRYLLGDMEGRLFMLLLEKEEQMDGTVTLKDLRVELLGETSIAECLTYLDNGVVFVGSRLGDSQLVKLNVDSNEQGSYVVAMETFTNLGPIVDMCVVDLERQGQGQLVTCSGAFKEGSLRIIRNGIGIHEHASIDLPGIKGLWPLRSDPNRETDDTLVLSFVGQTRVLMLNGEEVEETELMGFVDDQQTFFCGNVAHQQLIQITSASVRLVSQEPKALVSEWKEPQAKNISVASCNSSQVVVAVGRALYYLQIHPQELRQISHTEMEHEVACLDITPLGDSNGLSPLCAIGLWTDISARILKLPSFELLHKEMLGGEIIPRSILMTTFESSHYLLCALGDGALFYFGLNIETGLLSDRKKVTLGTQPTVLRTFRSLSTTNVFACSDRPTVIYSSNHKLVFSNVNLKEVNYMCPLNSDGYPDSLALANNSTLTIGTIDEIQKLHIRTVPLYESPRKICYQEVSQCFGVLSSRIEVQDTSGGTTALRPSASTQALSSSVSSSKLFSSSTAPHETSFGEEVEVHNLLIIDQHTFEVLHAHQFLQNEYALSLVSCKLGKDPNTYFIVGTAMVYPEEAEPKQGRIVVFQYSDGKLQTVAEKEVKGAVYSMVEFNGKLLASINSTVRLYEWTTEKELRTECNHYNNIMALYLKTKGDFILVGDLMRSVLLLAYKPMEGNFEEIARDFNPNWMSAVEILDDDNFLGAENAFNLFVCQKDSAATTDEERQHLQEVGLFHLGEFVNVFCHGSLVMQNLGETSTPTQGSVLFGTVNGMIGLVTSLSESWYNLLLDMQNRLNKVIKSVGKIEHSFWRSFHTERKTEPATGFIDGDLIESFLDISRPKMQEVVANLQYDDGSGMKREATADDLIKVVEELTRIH

IC50 (CRBN-DDB1) [nM]	DC50 (GSPT1) [nM]	Structure (SMILES)
100 to 1000	≤ 30	Cc1ccc(NC(=O)OC2CN(c3cc(F)c(C4CCC(=O)NC4=O)c(F)c3)C2)cc1Cl (centres unmarked) [Compound 2, 1-(4-(2,6-dioxopiperidin-3-yl)-3,5-difluorophenyl)azetidin-3-yl(3-chloro-4-methylphenyl) carbamate]
100 to 1000	30 to 300	O=C1CCC(c2c(F)cc(N3CC(OC(=O)Nc4cc(F)cc(Cl)c4)C3)cc2F)C(=O)N1 (centres unmarked) [Compound 34, 1-(4-(2,6-dioxopiperidin-3-yl)-3,5-difluorophenyl)azetidin-3-yl(3-chloro-5-fluorophenyl)carbamate]
100 to 1000	30 to 300	Cc1cc(C)cc(NC(=O)OC2CN(c3cc(F)c(C4CCC(=O)NC4=O)c(F)c3)C2)c1 (centres unmarked) [Compound 4, 1-(4-(2,6-dioxopiperidin-3-yl)-3,5-difluorophenyl)azetidin-3-yl (3,5-dimethyl phenyl)carbamate]
100 to 1000	≤ 30	Cc1cc(F)cc(NC(=O)OC2CN(c3cc(F)c(C4CCC(=O)NC4=O)c(F)c3)C2)c1 (centres unmarked) [Compound 78, 1-(4-(2,6-dioxopiperidin-3-yl)-3,5-difluorophenyl)azetidin-3-yl(3-fluoro-5-methylphenyl)carbamate]
